Patent US20140137294A1, “GLUCOSINOLATE TRANSPORTER PROTEIN AND USES THEREOF” (UNIVERSITY OF COPENHAGEN, priority 2010, published 2014)

Target: T1, AtGTR1 (Arabidopsis thaliana, UniProt Q944G5)
T1 construct: A library of Arabidopsis transporters available as full length cDNAs from the RIKEN bioresource center; expressed in transfected cells; host or cells: Xenopus oocytes injected with in vitro transcribed cRNA
T1 sequence (Q944G5 31-636 limits assumed): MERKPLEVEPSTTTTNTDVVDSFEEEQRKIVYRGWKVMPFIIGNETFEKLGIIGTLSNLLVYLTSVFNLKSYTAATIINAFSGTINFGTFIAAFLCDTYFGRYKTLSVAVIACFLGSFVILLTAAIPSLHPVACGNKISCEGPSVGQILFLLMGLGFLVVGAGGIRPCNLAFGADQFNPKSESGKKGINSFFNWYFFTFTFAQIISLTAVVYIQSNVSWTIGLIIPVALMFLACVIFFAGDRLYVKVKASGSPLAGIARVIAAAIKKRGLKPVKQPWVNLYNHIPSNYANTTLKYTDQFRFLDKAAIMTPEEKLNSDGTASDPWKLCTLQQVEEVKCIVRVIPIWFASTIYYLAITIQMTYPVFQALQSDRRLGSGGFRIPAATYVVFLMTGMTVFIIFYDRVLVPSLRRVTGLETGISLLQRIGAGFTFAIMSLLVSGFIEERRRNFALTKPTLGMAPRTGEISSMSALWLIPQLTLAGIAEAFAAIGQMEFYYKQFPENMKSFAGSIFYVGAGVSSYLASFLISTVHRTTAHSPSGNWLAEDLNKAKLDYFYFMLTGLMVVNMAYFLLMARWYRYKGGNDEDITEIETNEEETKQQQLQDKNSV
Assay: Substrate-induced currents in voltage-clamped Xenopus oocytes expressing AtGTR1
Assay type: cell-based
Details: AtGTR1

Question: Which inward current (100 μM substrate, pH 5, voltage clamped at −50 mV) does the source give for `CSCCCC/C(=N/OS(=O)(=O)O)S[C@@H]1O[C@H](CO)[C@@H](O)[C@H](O)[C@H]1O` [4-MTB, 4-methylthiobutyl glucosinolate] here?
Answer: The inward current was ~30 nA.

Question: What about the Km (pH 5, clamped at −60 mV, Michaelis-Menten) of the same compound?
Answer: Its Km is 20 ± 1.2 µM.
